We go through four compounds from ChEMBL document CHEMBL1255553, “Unusual antimalarial meroditerpenes from tropical red macroalgae” (Bioorg Med Chem Lett, 2010).

Converted amounts (≈) assume the structure as drawn.

The test system of this experiment is Mycobacterium tuberculosis. Kind of experiment: Antimicrobial activity against vancomycin-resistant Mycobacterium tuberculosis. The experiment is classed as functional, organism-based.

The MIC is the smallest concentration in the dilution series that meets the test's criterion for growth inhibition. As a reminder, the IC50 is the point on the concentration scale where inhibition reaches its midpoint.

On to `CC1=C2Cc3cc(ccc3O)C(=O)O[C@H](C(C)(C)O)CC[C@]3(C)O[C@H]3C/C=C(\C)C2CC1` (some centres undefined), for which the MIC was greater than 100 µM.

For `CC(C)=CCC[C@@](C)(O)[C@@H]1CC/C(C)=C/CC/C(C)=C/Cc2cc(ccc2O)C(=O)O1` [CALLOPHYCOLIDE A], 12 µM (≈ 5.12 µg/mL) was the least that counted as inhibitory (MIC).

`Cc1cc(O)cc(CC[C@](C)(O)CCC[C@H](C)CCC[C@H](C)CCCC(C)C)c1O` displayed an IC50 greater than 100 µM. Compound `CC1=C2Cc3cc(ccc3O)C(=O)O[C@H](C(C)(C)Br)CC[C@](C)(O)[C@H](Br)CC[C@]2(C)[C@@H](Br)CC1` yielded a minimal inhibitory concentration (MIC) of 11 µM (≈ 7.32 µg/mL).
